Test results published in PMC10385664, “Projection of Target Drug Particle Size in Oral Formulations Using the Refined Developability Classification System (rDCS)” (Pharmaceutics, 2023).
Like-named read-outs stand apart in the source and are kept apart here.

Columns and labels:
[1] = cited from earlier work
[2] = rDCS dissolution rate analysis (kdiss vs kperm) by Rosenberger et al.; conditions: for kdiss: based on IDR, standard particle size 100 µm
Source text: Rosenberger et al. published an equation for kdiss based on the intrinsic dissolution rate (IDR) rather than CS (Equation (9)). Applying the hparticle assumption for larger particles with r0 ≥ 30 µm (hparticle = 30 µm) results in Equation (10). (9) kdiss=kIDR·IDR=3·hdisk/r0^2·ρ·IDR(r0<30 µm, hparticle=r0) (10) kdiss=kIDR·IDR=3·hdisk/r0·hparticle·ρ·IDR(r0≥30 µm, hparticle=30 µm)
In these equations kIDR is the IDR rate constant, which accounts for the solvent kinematic viscosity, rotational speed of the compressed disk, diffusion coefficient, particle size and API density. Therefore, kIDR corrects for differences in experimental conditions that influence the measured IDR value. The ABL thickness of the rotating disk (hdisk) can be estimated according to Equation (11):(11) hdisk=4.98·ν^1/6·D^1/3·RPM^−1/2 where ν is the solvent kinematic viscosity and the stirring rate is expressed as revolutions per minute (RPM). When kdiss is based on the IDR, two modified Dn equations result (Equations (12) and (13)):(12) Dn=3·hdisk/r0^2·ρ·IDR·Tsi(r0<30 µm, hparticle=r0) (13) Dn=3·hdisk/r0·hparticle·ρ·IDR·Tsi(r0≥30 µm, hparticle=30 µm)
The rDCS dissolution rate analysis was conducted according to Rosenberger et al.. For this, kdiss based on the IDR for a standard particle size of 100 µm was calculated (Equation (15)) and compared to kperm (Equation (10)). The kinematic viscosity of the medium (0.00696 cm^2/s), aqueous diffusion coefficient (predicted with ADMET Predictor version 9), stirring rate (100 rpm), initial particle size (100 µm), API density (predicted with ACD/Labs Release 2021.1.2), and measured IDR were used to calculate kdiss. Predicted diffusion coefficients and API densities can be found in Supplementary Materials. The estimated Peff, degree of flatness (1.7) and small intestinal radius (2 cm) were used for the calculation of kperm.

[3] = cited from earlier work; remark: listed apart in the source
[4] = rDCS standard investigations: D/S ratio, SLAD and rDCS classification
Procedure: rDCS analysis was performed as described by Rosenberger et al.. […] The An can be calculated according to Equation (30):(30) An=DF·Peff/Rsi·Tsi
The rDCS classification according to the standard investigations was based on the D/S ratios, Peff and SLAD.

[5] = tested on: P-gp; assay: Caco-2 permeability assay (pH 6.5/7.4 gradient, ± elacridar); conditions: human, Caco-2, with P-gp inhibitor elacridar 10 µM
Procedure: (§1) In vitro permeability studies were performed at Cyprotex Discovery Ltd. (Macclesfield, UK) using a high-throughput Caco-2 permeability assay. Permeability at 37 °C was assessed from the apical to basolateral side (A⟹B) and in opposite direction (B⟹A) applying a pH gradient with pH 6.5 in the apical and pH 7.4 in the basolateral compartment (Hanks Balanced Salt Solution, HBSS). After an incubation of 120 min, samples were diluted for analysis via liquid chromatography coupled with tandem mass spectrometry (LC-MS/MS). […] Experiments were performed in absence and presence of the P-glycoprotein (P-gp) inhibitor elacridar (10 µM) to study transporter-mediated efflux effects. The dosing solutions contained the API (10 µM) in HBSS, and DMSO in a concentration of ≤1% v/v. Lucifer yellow (100 µM) was included as fluorescent integrity marker. Further experimental details are provided in Supplementary Materials.
(§2) The apparent permeability coefficients (Papp) were calculated according to Equation (27):(27) Papp=dQ/dt/C0·A where dQ/dt is the permeation rate of the API across the cell monolayer, C0 is the starting concentration of the API in the dosing solution and A is the surface area of the cell monolayer. The efflux ratios (ERs) were calculated from the B⟹A and A⟹B Papp values to estimate whether P-gp mediated efflux was involved in the transport of the APIs. The mass balance (% recovery) was calculated from the sum of the API recovered from the acceptor and donor compartments at the end of the experiment, divided by the initial donor amount.
(§3) Table S6. Gradient of the UPLC method for analysis of lemborexant.
(§4) Table S7. Gradient of the UPLC method for analysis of istradefylline.
(§5) S.2.5. rDCS Standard Investigations: Caco‐2 permeability studies
(§6) Caco‐2 cells were obtained from the American Type Culture Collection (ATCC, Manassas, VA, USA) and used between passage numbers 40 to 60. The cells were seeded onto Millipore Multiscreen Transwell plates at a density of 1 x 10^5 cells/cm2 and cultured in Dulbeccoʹs Modified Eagleʹs Medium (DMEM). The medium was changed every two or three days. Ce l l culture was carried out at 37 °C in an atmosphere of 5 % CO2 with a relative humidity of 95 %. The permeability assay was performed on day 20.
(§7) In vitro permeability was assessed wit h a high‐throughput Caco‐2 permeability assay. The assay was prepared by rinsing apical and basolateral monolayer surfaces twice with Hanks Balanced Salt Solution (HBSS) at the desired pH and 37 °C. Subsequently, cells in the apical and basolateral compartments were incubated with HBSS at the desired pH for 40 min. A pH gradient with pH 6.5 in the apical compartment and pH 7.4 in the basolateral compartment was applied. Dosing solutions containing the API (10 μ M) were prepared by diluting a concentrated API solution in DMS O with HBSS. The final DMSO concentration was ≤ 1% v/v. Lucifer yellow (100 μM) was included in the dosing solution as fluorescent integrity marker. For the assessment of the permeability from the apical to basolateral side (A⟹B), HBSS in the apical compartment was replaced with the dosing solution. The apical inserts were placed into a companion plat e containing fresh buffer with 1% v/ v DMSO. For the assessment of the permeability from the basolateral to […]
(§8) apical side (B⟹A), HBSS was removed from the companion plate and replaced with the solution of drug in HBSS. Fresh HBSS was added to the apical insert, which was then placed into the companion plate.
(§9) Experiments were performed in absence and presence of the P‐glycoprotein (P‐gp) inhibitor elacridar (10 μM) to study transporter‐mediated efflux effects. In those experiments, elacridar was included in both compartments during the equilibration time and assay. The starting concentration (C0) was confirmed by sampling from the dosing solution immediately before dosing into the cell pl ates. After incubation of 120 minutes, the apical inserts and companion plates were separated for sampling from both compartments.

[6] = as above; conditions: human; for recovery at 120 min, 10 µM: Caco-2
Procedure: as §1, §2, §3, §4, §5, §6, §7, §8, §9

[7] = healthy male subjects, oral suspension 40 mg [14C]istradefylline
[8] = from estimated Peff, DF 1.7, Rsi 2 cm
[9] = Caco-2, with elacridar 10 µM, Papp(A⟹B) + inhibitor
[10] = Caco-2, with elacridar 10 µM, Papp(B⟹A) + inhibitor
[11] = Caco-2, Papp(A⟹B), Caco-2, 10 µM, apical pH 6.5 / basolateral pH 7.4, 120 min, without inhibitor
[12] = Caco-2, Papp(B⟹A), Caco-2, without inhibitor
[13] = human mass-balance study, 10 mg [14C]lemborexant

Compound | kdiss [2] [s⁻¹] | kperm [2, 8] [min⁻¹] | SLAD (solubility-limited absorbable dose) [4] [mg] | Papp at 120 min, 10 µM [5, 9] [×10⁻⁶ cm/s] | Papp at 120 min, 10 µM [5, 10] [×10⁻⁶ cm/s] | recovery at 120 min, 10 µM [6] [%] | Papp at 120 min, 10 µM [6, 11] [×10⁻⁶ cm/s] | Papp at 120 min, 10 µM [6, 12] [×10⁻⁶ cm/s] | other results
CCn1c(=O)c2c(nc(/C=C/c3ccc(OC)c(OC)c3)n2C)n(CC)c1=O [Istradefylline, istradefylline] | 4.55e-07 | 0.0238 | 8.50 | 31.2 ± 1.1 | 43.7 ± 18.5 | > 85 | 30.2 ± 1.2 | 28.3 ± 16 | administered radioactivity recovered in feces [1, 7]: 48.0 ± 13.4%; administered radioactivity recovered in urine [1, 7]: 38.9 ± 10.7%; Literature pKa ([3]; basic pKa, method not disclosed): 0.78 ^3 [31, 34]
Cc1ncc(OC[C@@]2(c3cccc(F)c3)C[C@H]2C(=O)Nc2ccc(F)cn2)c(C)n1 [Lemborexant, lemborexant] | 3e-06 | 0.0214 | 49.6 | – | – | > 74 | 26.7 ± 1.2 | 41.8 ± 1.2 | median tmax ([1]; healthy adults, single oral doses 1 to 10 mg): approximately 1 h; dose recovered unchanged in feces [1, 13]: about 13%; fraction of oral dose absorbed (Fa) [1, 13]: 87%; exposure versus dose ([1]; range 1 to 10 mg): increase in a dose-proportional manner; Literature pKa ([3]; estimated by capillary electrophoresis): <3.50 [33]; Papp at 120 min, 10 µM ([5]; Caco-2, Papp(A⟹B) + inhibitor): 24.2 ± 0.7 ×10⁻⁶ cm/s; Papp at 120 min, 10 µM ([5]; Caco-2, Papp(B⟹A) + inhibitor): 39 ± 0.4 ×10⁻⁶ cm/s
C[C@@H](c1ncncc1F)[C@](O)(Cn1cncn1)c1ccc(F)cc1F [Voriconazole, voriconazole] | 0.000126 | 0.0219 | 1810 | 24 ± 1 | 40.4 ± 1.1 | > 87 | 27.3 ± 1.7 | 43.5 ± 0.9 | oral bioavailability ([1]; healthy volunteers, 200 mg or 400 mg oral): ≥ 85%; exposure (AUC and Cmax) versus dose ([1]; high single oral doses of 800, 1200 and 1600 mg): increased proportionally with dose; kdiss for r = 100 µm ([2]; Excel template): 0.000126 s⁻¹; kperm ([2]; Excel template): 0.02193 min⁻¹; Literature pKa ([3]; basic pKa, triazole moiety, method not disclosed): 1.76 ^3 [32]
